The record followed here is US20040018500A1, “Methods and systems for analyzing complex biological systems” (priority 2001, published 2004).

The test system of assay [1] is Arabidopsis thaliana. In words: MOA1 phenotypic profiling of Arabidopsis sprayed with unknown and commercial herbicides. Format: in vivo.
Assay [2] deals with Arabidopsis thaliana. The assay is described as follows: MOA1 biochemical (metabolite) profiling by LC-MS and GC-MS of sprayed Arabidopsis. The conditions noted are these: MOA1; 20 minutes and 1 hour after spraying.
The subject of assay [3] is Arabidopsis thaliana plants. The assay is described as follows: SOA1 phenotypic analysis of herbicide-treated Arabidopsis plants. Type of assay: in vivo.

On to `CCSC(=O)N(CC(C)C)CC(C)C` [Butylate], for which, in the assay on Arabidopsis thaliana [1], the “phenotype observed” value was “neither showed a strong herbicidal phenotype”. The “commonly regulated (putative stress-related) metabolites” value with Arabidopsis thaliana [2] is listed as “neither butylate nor chlorpropham treatment resulted in many changes in these commonly regulated metabolites”.
Consider `Nc1nc[nH]n1` [Amitrole], for which the “phenotype observed” value with Arabidopsis thaliana [1] is “exhibited chlorosis and not true bleaching”. Moreover, in assay [3] (herbicide-treated Arabidopsis), the “characteristic symptoms (phenotypic analysis)” value is “leaf bleaching and leaf enlargement”. For the same compound, the “Symptom Class” value in assay [3] (three-week-old Arabidopsis treated with herbicide, phenotypes shown in FIG. 12) is 2.
On to `CC(C)OC(=O)Nc1cccc(Cl)c1` [Chloropropham], for which the “phenotype observed” value in the assay with Arabidopsis thaliana [1] is “neither showed a strong herbicidal phenotype”. Besides, the “commonly regulated (putative stress-related) metabolites” value with Arabidopsis thaliana [2] is “neither butylate nor chlorpropham treatment resulted in many changes in these commonly regulated metabolites”.
